Data from ChEMBL document CHEMBL4507275, “Data for DCP probe BI-2545” (2021).

Key:
[1] = target: RAC-gamma serine/threonine-protein kinase (Homo sapiens) (UniProt Q9Y243); conditions: Compound concentration 1000.0 nM
[2] = system: ALK tyrosine kinase receptor (Homo sapiens), Q9UM73 [L1196M]; conditions: Compound concentration 1000.0 nM
[3] = target: Ankyrin repeat and protein kinase domain-containing protein 1 (Homo sapiens) (UniProt Q8NFD2); conditions: Compound concentration 1000.0 nM
[4] = target: Cyclin-dependent kinase 5 (Homo sapiens) (UniProt Q00535); conditions: Compound concentration 1000.0 nM
[5] = target: Cyclin-dependent kinase 7 (Homo sapiens) (UniProt P50613); conditions: Compound concentration 1000.0 nM
[6] = target: Dual specificity protein kinase CLK1 (Homo sapiens) (UniProt P49759); conditions: Compound concentration 1000.0 nM
[7] = target: Serine/threonine-protein kinase MRCK gamma (Homo sapiens) (UniProt Q6DT37); conditions: Compound concentration 1000.0 nM
[8] = target: Dual specificity tyrosine-phosphorylation-regulated kinase 1B (Homo sapiens) (UniProt Q9Y463); conditions: Compound concentration 1000.0 nM
[9] = system: Epidermal growth factor receptor (Homo sapiens), P00533 [G719S]; conditions: Compound concentration 1000.0 nM
[10] = system: Epidermal growth factor receptor (Homo sapiens), P00533 [L858R]; conditions: Compound concentration 1000.0 nM
[11] = target: Eukaryotic translation initiation factor 2-alpha kinase 1 (Homo sapiens) (UniProt Q9BQI3); conditions: Compound concentration 1000.0 nM
[12] = target: Ephrin type-A receptor 5 (Homo sapiens) (UniProt P54756); conditions: Compound concentration 1000.0 nM
[13] = target: Receptor tyrosine-protein kinase erbB-2 (Homo sapiens) (UniProt P04626); conditions: Compound concentration 1000.0 nM
[14] = target: Receptor tyrosine-protein kinase erbB-4 (Homo sapiens) (UniProt Q15303); conditions: Compound concentration 1000.0 nM
[15] = system: Receptor-type tyrosine-protein kinase FLT3 (Homo sapiens), P36888 [D835H]; conditions: Compound concentration 1000.0 nM
[16] = system: Receptor-type tyrosine-protein kinase FLT3 (Homo sapiens), P36888 [D835Y]; conditions: Compound concentration 1000.0 nM
[17] = target: Tyrosine-protein kinase FRK (Homo sapiens) (UniProt P42685); conditions: Compound concentration 1000.0 nM
[18] = target: Rhodopsin kinase GRK7 (Homo sapiens) (UniProt Q8WTQ7); conditions: Compound concentration 1000.0 nM
[19] = target: Insulin receptor-related protein (Homo sapiens) (UniProt P14616); conditions: Compound concentration 1000.0 nM
[20] = target: Tyrosine-protein kinase JAK3 (Homo sapiens) (UniProt P52333); conditions: Compound concentration 1000.0 nM
[21] = target: LIM domain kinase 1 (Homo sapiens) (UniProt P53667); conditions: Compound concentration 1000.0 nM
[22] = target: Serine/threonine-protein kinase 10 (Homo sapiens) (UniProt O94804); conditions: Compound concentration 1000.0 nM
[23] = target: Mitogen-activated protein kinase kinase kinase kinase 3 (Homo sapiens) (UniProt Q8IVH8); conditions: Compound concentration 1000.0 nM
[24] = target: Mitogen-activated protein kinase kinase kinase kinase 5 (Homo sapiens) (UniProt Q9Y4K4); conditions: Compound concentration 1000.0 nM
[25] = target: MAP/microtubule affinity-regulating kinase 3 (Homo sapiens) (UniProt P27448); conditions: Compound concentration 1000.0 nM
[26] = target: Dual specificity mitogen-activated protein kinase kinase 5 (Homo sapiens) (UniProt Q13163); conditions: Compound concentration 1000.0 nM
[27] = target: Serine/threonine-protein kinase mTOR (Homo sapiens) (UniProt P42345); conditions: Compound concentration 1000.0 nM
[28] = target: Phosphatidylinositol 4-phosphate 3-kinase C2 domain-containing subunit beta (Homo sapiens) (UniProt O00750); conditions: Compound concentration 1000.0 nM
[29] = target: Serine/threonine-protein kinase pim-1 (Homo sapiens) (UniProt P11309); conditions: Compound concentration 1000.0 nM
[30] = target: Phosphatidylinositol 4-phosphate 5-kinase type-1 gamma (Homo sapiens) (UniProt O60331); conditions: Compound concentration 1000.0 nM
[31] = target: Serine/threonine-protein kinase PLK1 (Homo sapiens) (UniProt P53350); conditions: Compound concentration 1000.0 nM
[32] = target: Protein kinase C eta type (Homo sapiens) (UniProt P24723); conditions: Compound concentration 1000.0 nM
[33] = target: cGMP-dependent protein kinase 2 (Homo sapiens) (UniProt Q13237); conditions: Compound concentration 1000.0 nM
[34] = target: Receptor-interacting serine/threonine-protein kinase 2 (Homo sapiens) (UniProt O43353); conditions: Compound concentration 1000.0 nM
[35] = target: Ribosomal protein S6 kinase alpha-4 (Homo sapiens) (UniProt O75676); conditions: Compound concentration 1000.0 nM
[36] = target: Ribosomal protein S6 kinase alpha-6 (Homo sapiens) (UniProt Q9UK32); conditions: Compound concentration 1000.0 nM
[37] = target: Serine/threonine-protein kinase Sgk1 (Homo sapiens) (UniProt O00141); conditions: Compound concentration 1000.0 nM
[38] = target: NUAK family SNF1-like kinase 2 (Homo sapiens) (UniProt Q9H093); conditions: Compound concentration 1000.0 nM
[39] = target: Tyrosine-protein kinase receptor Tie-1 (Homo sapiens) (UniProt P35590); conditions: Compound concentration 1000.0 nM
[40] = target: Testis-specific serine/threonine-protein kinase 3 (Homo sapiens) (UniProt Q96PN8); conditions: Compound concentration 1000.0 nM
[41] = target: Dual specificity protein kinase TTK (Homo sapiens) (UniProt P33981); conditions: Compound concentration 1000.0 nM
[42] = target: Non-receptor tyrosine-protein kinase TYK2 (Homo sapiens) (UniProt P29597); conditions: Compound concentration 1000.0 nM
[43] = target: Serine/threonine-protein kinase 32C (Homo sapiens) (UniProt Q86UX6); conditions: Compound concentration 1000.0 nM
[44] = target: Histamine H2 receptor (Homo sapiens) (UniProt P25021); conditions: Compound concentration 10.0 uM
[45] = target: Sigma intracellular receptor 2 (Homo sapiens) (UniProt Q5BJF2); conditions: Compound concentration 10.0 uM
Sequence of Sigma intracellular receptor 2 (Homo sapiens) (Q5BJF2 whole entry): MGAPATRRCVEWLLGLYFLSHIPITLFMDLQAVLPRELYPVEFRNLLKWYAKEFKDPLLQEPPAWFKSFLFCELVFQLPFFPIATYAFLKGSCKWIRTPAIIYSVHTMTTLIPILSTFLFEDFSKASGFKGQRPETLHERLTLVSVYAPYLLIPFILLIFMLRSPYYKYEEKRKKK

Sequence of ALK tyrosine kinase receptor (Homo sapiens), Q9UM73 [L1196M] (Q9UM73 whole entry L1196M, looked up, the tested form may be a part): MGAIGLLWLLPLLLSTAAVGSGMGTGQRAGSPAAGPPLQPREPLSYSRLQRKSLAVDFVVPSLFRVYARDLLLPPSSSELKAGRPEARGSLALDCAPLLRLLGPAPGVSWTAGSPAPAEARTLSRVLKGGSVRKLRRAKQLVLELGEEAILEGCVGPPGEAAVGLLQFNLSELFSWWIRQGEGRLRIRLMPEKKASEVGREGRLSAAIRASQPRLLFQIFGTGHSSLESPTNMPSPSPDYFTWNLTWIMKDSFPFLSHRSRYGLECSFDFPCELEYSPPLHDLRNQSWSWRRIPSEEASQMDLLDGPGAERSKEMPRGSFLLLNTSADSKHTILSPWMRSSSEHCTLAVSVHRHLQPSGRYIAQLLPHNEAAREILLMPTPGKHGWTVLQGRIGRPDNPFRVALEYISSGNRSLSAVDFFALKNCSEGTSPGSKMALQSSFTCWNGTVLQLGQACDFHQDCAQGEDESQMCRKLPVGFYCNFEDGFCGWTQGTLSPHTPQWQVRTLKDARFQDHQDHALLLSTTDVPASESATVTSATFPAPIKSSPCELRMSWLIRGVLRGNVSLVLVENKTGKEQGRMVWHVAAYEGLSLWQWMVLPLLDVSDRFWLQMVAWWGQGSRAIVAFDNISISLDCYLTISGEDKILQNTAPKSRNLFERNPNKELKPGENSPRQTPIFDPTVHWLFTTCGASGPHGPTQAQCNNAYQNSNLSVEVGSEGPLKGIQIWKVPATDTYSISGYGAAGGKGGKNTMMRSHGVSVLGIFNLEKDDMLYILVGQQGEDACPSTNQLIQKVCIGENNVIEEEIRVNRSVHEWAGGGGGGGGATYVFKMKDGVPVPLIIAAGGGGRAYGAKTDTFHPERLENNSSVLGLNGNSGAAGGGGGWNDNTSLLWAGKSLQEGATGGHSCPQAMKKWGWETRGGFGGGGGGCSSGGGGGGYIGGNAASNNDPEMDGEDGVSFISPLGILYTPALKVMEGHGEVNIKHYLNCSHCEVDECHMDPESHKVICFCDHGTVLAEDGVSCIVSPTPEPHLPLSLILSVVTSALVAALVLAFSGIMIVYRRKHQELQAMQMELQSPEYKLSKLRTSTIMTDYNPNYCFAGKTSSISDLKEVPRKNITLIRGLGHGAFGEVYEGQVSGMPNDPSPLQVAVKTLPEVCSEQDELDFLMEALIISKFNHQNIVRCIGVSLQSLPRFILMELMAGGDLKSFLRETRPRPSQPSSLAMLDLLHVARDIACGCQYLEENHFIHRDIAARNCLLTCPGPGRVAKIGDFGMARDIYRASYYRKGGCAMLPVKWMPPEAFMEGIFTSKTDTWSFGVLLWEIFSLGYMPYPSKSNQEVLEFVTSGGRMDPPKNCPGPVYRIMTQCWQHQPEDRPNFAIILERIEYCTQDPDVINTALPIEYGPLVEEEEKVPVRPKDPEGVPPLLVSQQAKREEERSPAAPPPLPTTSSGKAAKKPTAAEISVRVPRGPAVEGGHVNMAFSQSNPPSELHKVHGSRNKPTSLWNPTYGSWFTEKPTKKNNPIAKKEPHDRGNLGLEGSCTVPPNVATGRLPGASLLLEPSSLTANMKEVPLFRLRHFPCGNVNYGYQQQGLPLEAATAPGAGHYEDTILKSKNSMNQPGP
Sequence of Serine/threonine-protein kinase 10 (Homo sapiens) (O94804 whole entry, looked up): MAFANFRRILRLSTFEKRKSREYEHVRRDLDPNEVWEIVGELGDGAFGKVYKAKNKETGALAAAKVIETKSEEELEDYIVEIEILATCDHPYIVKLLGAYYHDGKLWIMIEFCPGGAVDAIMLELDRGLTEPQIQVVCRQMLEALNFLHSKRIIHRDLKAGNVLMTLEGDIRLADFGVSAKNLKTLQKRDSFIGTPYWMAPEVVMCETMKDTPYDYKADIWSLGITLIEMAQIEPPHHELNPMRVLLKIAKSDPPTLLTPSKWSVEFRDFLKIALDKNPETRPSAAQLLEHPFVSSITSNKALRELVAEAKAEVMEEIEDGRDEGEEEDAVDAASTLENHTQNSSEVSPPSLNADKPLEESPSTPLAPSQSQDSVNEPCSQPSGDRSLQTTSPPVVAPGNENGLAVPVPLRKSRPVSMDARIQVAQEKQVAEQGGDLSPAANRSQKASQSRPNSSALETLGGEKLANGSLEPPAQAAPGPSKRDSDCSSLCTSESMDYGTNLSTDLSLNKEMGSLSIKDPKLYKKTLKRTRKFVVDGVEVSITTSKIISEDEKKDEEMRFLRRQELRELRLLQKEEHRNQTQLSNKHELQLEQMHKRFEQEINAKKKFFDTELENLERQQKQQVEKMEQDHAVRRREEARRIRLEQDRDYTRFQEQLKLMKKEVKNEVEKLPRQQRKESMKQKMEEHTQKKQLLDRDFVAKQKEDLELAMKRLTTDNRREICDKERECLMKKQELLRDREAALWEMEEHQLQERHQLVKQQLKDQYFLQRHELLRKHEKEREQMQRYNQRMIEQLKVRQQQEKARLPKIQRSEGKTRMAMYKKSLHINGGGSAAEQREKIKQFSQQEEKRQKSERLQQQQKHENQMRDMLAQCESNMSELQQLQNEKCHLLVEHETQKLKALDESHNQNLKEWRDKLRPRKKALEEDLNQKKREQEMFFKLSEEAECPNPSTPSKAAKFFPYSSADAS
Sequence of Dual specificity protein kinase TTK (Homo sapiens) (P33981 whole entry): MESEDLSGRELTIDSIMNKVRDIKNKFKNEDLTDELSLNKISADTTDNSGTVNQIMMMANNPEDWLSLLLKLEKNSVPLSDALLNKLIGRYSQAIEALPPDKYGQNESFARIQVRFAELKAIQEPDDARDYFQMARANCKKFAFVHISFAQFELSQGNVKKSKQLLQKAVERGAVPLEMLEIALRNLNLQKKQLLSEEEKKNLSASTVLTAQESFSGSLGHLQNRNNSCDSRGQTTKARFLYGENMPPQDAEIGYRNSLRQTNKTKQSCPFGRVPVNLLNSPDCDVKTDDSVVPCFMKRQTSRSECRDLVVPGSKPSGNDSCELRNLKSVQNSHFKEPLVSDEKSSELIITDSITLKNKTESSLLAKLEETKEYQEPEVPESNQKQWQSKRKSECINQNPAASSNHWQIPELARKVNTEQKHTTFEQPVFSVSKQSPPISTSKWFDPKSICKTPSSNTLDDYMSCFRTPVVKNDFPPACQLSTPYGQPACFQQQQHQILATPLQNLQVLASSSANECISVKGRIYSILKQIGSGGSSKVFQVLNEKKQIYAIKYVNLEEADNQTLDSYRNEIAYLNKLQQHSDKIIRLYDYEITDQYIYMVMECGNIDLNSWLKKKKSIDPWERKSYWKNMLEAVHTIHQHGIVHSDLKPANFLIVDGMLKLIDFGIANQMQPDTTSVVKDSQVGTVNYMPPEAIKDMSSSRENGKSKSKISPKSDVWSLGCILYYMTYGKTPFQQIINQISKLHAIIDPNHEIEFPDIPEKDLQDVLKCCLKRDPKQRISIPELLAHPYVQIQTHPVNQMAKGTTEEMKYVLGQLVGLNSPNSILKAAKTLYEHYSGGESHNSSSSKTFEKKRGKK
Sequence of Dual specificity mitogen-activated protein kinase kinase 5 (Homo sapiens) (Q13163 whole entry): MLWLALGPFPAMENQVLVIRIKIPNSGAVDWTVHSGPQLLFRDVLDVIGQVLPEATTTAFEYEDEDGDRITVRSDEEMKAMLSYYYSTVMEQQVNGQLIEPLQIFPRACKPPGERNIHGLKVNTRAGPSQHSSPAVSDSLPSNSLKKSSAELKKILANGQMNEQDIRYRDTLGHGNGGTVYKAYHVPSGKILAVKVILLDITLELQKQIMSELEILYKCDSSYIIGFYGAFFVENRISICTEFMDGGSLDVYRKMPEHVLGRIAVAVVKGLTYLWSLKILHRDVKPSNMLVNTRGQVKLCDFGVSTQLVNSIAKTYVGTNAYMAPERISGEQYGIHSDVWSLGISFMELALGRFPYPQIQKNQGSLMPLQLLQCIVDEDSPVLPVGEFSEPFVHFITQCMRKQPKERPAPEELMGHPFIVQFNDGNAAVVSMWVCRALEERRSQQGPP
Sequence of Serine/threonine-protein kinase PLK1 (Homo sapiens) (P53350 whole entry): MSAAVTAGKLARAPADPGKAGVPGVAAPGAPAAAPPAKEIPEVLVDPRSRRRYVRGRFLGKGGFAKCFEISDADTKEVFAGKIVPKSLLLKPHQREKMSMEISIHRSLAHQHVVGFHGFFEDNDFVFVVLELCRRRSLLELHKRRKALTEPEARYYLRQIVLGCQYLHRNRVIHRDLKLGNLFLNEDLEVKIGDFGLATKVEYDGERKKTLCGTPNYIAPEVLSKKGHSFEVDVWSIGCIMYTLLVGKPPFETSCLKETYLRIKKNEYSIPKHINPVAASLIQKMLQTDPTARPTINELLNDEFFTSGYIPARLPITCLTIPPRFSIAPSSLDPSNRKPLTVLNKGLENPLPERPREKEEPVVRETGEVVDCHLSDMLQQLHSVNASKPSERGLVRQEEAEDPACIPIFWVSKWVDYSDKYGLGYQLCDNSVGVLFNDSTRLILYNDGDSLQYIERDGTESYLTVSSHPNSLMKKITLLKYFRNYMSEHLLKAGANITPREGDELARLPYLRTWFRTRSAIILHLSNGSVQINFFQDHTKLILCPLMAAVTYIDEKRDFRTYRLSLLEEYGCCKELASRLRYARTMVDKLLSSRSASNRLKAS
Sequence of Histamine H2 receptor (Homo sapiens) (P25021 whole entry): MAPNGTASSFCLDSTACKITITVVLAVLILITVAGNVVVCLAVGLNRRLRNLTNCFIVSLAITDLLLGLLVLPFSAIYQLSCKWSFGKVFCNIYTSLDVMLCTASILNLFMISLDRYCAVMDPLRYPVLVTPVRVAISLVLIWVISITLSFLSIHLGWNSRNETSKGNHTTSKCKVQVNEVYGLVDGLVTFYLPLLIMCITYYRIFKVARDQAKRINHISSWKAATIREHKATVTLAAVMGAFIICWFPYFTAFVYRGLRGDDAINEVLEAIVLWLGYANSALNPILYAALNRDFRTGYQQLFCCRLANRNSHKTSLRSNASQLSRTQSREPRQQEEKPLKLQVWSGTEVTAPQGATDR

O=C(NC[C@@H]1[C@H]2CN(C(=O)OCc3cc(C(F)(F)F)cc(C(F)(F)F)c3)C[C@@H]12)c1ccc2[nH]nnc2c1 [BI 2545]
inactive: residual activity [1] 87% | residual activity [2] 100% | residual activity [3] 73% | residual activity [4] 100% | residual activity [5] 92% | residual activity [6] 87% | residual activity [7] 90% | residual activity [8] 86% | residual activity [9] 100% | residual activity [10] 100% | residual activity [11] 91% | residual activity [12] 100% | residual activity [13] 100% | residual activity [14] 100% | residual activity [15] 100% | residual activity [16] 100% | residual activity [17] 83% | residual activity [18] 100% | residual activity [19] 83% | residual activity [20] 69% | residual activity [21] 100% | residual activity [22] 100% | residual activity [23] 89% | residual activity [24] 97% | residual activity [25] 100% | residual activity [26] 100% | residual activity [27] 100% | residual activity [28] 65% | residual activity [29] 98% | residual activity [30] 98% | residual activity [31] 100% | residual activity [32] 100% | residual activity [33] 82% | residual activity [34] 64% | residual activity [35] 100% | residual activity [36] 67% | residual activity [37] 100% | residual activity [38] 88% | residual activity [39] 77% | residual activity [40] 100% | residual activity [41] 91% | residual activity [42] 100% | residual activity [43] 90% | inhibition [44] 28.1% | inhibition [45] 44.9%

Cc1nccc(COC(=O)N2C[C@@H]3[C@@H](CNC(=O)c4ccc5[nH]nnc5c4)[C@@H]3C2)n1 [BI 3017]
inactive: residual activity [1] 100% | residual activity [2] 93% | residual activity [3] 100% | residual activity [4] 100% | residual activity [5] 78% | residual activity [6] 100% | residual activity [7] 92% | residual activity [8] 99% | residual activity [9] 100% | residual activity [10] 78% | residual activity [11] 100% | residual activity [12] 93% | residual activity [13] 99% | residual activity [14] 100% | residual activity [15] 97% | residual activity [16] 100% | residual activity [17] 100% | residual activity [18] 88% | residual activity [19] 100% | residual activity [20] 96% | residual activity [21] 100% | residual activity [22] 100% | residual activity [23] 66% | residual activity [24] 100% | residual activity [25] 95% | residual activity [26] 100% | residual activity [27] 96% | residual activity [28] 97% | residual activity [29] 96% | residual activity [30] 93% | residual activity [31] 92% | residual activity [32] 98% | residual activity [33] 100% | residual activity [34] 100% | residual activity [35] 100% | residual activity [36] 100% | residual activity [37] 100% | residual activity [38] 100% | residual activity [39] 100% | residual activity [40] 100% | residual activity [41] 89% | residual activity [42] 82% | residual activity [43] 95% | inhibition [44] -0.15% | inhibition [45] -2.9%
